Experimental data: paper PMC11471595, “Quality by design-based approach for the development of an analytical method for quantifying ponatinib in rat plasma” (Heliyon, 2024)
Read-outs that look alike come from different tables or passages of the source.

Key:
[1] = In vivo pharmacokinetic study of ponatinib in rats (plasma by HPLC-FLD, non-compartmental analysis); set-up: species or system Male SD rats; settings: male, rat; for half-life: n = 3, read-out: T1/2 (terminal half-life) (converted)
Protocol: Animal experiments were conducted following the guidelines of the Korea Research Institute of Bioscience and Biotechnology (KRIBB-AEC-20309). Male SD rats (Koatech Inc.; Pyeongtaek, Gyeonggi, Republic of Korea) were acclimated to laboratory conditions for at least one week before experimentation. Animals were permitted ad libitum access to food and water, except during the 8 h fasting period before drug administration; however, water was continuously available.
Rats were administered ponatinib, prepared in a DMAC, cremophor EL, and 20 % HPβCD) in water (10:10:80) for intravenous (IV; 4 mg/kg) and oral administration (7.5 mg/kg). Blood samples (approximately 100 μL) were collected in lithium heparin-treated tubes through the jugular vein at 5, 15, and 30 min, and 1, 3, 6, 12, 24, 36, and 48 h for the IV group (n = 3) and at 30 min and 1, 2, 4, 6, 8, 12, 24, 36, and 48 h post-dose for the oral group (n = 3). The samples were centrifuged at 13,500×g for 10 min at 4 °C. Plasma was stored at −20 °C until analysis.
Plasma ponatinib concentrations were determined using the HPLC-FLD method developed in this study. Pharmacokinetic parameters were calculated using non-compartmental analysis via WinNonlin software (Pharsight Corporation, Mountain View, CA, USA). The key parameters were the area under the plasma concentration-time curve from zero to the last quantifiable time point (AUClast) and infinity (AUCinf), both of which were calculated using the linear trapezoidal method. The terminal half-life (T1/2) was derived from the elimination constant at the terminal phase (λ), and total clearance (CL) and the steady-state volume of distribution (Vss) were calculated. The maximum plasma concentration (Cmax) and time to reach Cmax (Tmax) were obtained directly from the plasma concentration-time graph. The oral bioavailability (F) was determined by dividing the dose-normalized AUCinf value following oral administration by that following IV administration.

[2] = Stability of ponatinib in rat plasma under storage conditions; format: in vitro ADME; settings: for Stability (%, mean ± SD): n = 3
Protocol: The stability of ponatinib in rat plasma was determined under various conditions using LQC and HQC samples in triplicate. The stability tests included bench-top exposure at room temperature for 2 h, long-term storage at −20 °C for 3 weeks, three freeze-thaw cycles, and 24-h autosampler storage at 10 °C. The stability of ponatinib was determined by comparing the measured concentrations with nominal values.

bioavailability ([1]; SD, PO 7.5 mg/kg vs IV 4 mg/kg, dose-normalized AUCPO/AUCIV × 100, read-out: F (oral bioavailability)): 48.2 ± 3.9% | AUC(0-inf) ([1]; IV 4 mg/kg, mean ± SD, n = 3): 6140 ± 750 ng·h/mL | AUC(0-t) ([1]; IV 4 mg/kg, mean ± SD, n = 3): 6100 ± 730 ng·h/mL | clearance ([1]; IV 4 mg/kg, mean ± SD, n = 3, read-out: CL (total clearance) (converted)): 10.9 mL/min/kg | half-life ([1]; IV 4 mg/kg, mean ± SD): 410 ± 13.2 min | Vd ([1]; IV 4 mg/kg, mean ± SD, n = 3, read-out: Vss (steady-state volume of distribution)): 5.39 ± 0.2 L/kg | AUC(0-inf) ([1]; PO 7.5 mg/kg, mean ± SD, n = 3): 5520 ± 280 ng·h/mL | AUC(0-t) ([1]; PO 7.5 mg/kg, mean ± SD, n = 3): 5400 ± 270 ng·h/mL | Cmax ([1]; PO 7.5 mg/kg, mean ± SD, n = 3): 308 ± 11 ng/mL | Tmax ([1]; PO 7.5 mg/kg, mean ± SD, n = 3): 5.34 ± 2.31 h | half-life ([1]; PO 7.5 mg/kg, mean ± SD): 525 ± 40.2 min | Stability (%, mean ± SD) ([2]; processed rat plasma, autosampler (10 °C for 24 h), HQC 800 ng/mL): 95.2 ± 11.1% | Stability (%, mean ± SD) ([2]; processed rat plasma, autosampler (10 °C for 24 h), LQC 3 ng/mL): 93.4 ± 1.3% | Stability (%, mean ± SD) ([2]; rat plasma, bench top (room temperature for 2 h), HQC 800 ng/mL): 91.5 ± 2.1% | Stability (%, mean ± SD) ([2]; rat plasma, bench top (room temperature for 2 h), LQC 3 ng/mL): 108 ± 6% | Stability (%, mean ± SD) ([2]; rat plasma, freeze-thaw (3 cycles), HQC 800 ng/mL): 92.1 ± 5.0% | Stability (%, mean ± SD) ([2]; rat plasma, freeze-thaw (3 cycles), LQC 3 ng/mL): 89.1 ± 7.0% | Stability (%, mean ± SD) ([2]; rat plasma, long term (−20 °C for 3 weeks), HQC 800 ng/mL): 96.4 ± 4.3% | Stability (%, mean ± SD) ([2]; rat plasma, long term (−20 °C for 3 weeks), LQC 3 ng/mL): 93.1 ± 7.9% | Stability, range over LQC and HQC ([2]; rat plasma, room temperature for 2 h): 91.5 % to 108
SMILES: Cc1ccc(C(=O)Nc2ccc(CN3CCN(C)CC3)c(C(F)(F)F)c2)cc1C#Cc1cnc2cccnn12 [ponatinib, Ponatinib]
